Test results taken from ChEMBL document CHEMBL1201862, “PubChem BioAssay data set” (2004).
Active and inactive are the calls of the source.

Experiments:
[1] = Luminescence Cell-Based Dose Response HTS to Identify Activators of Luciferase Translation or Activity in H4 […] Cells. [Related pubchem assays: 1829 (Project Summary), 1814 (Primary HTS)]; assay type: functional
H4 = assay: Luminescence Cell-Based Dose Response HTS to Identify Activators of 5'UTR Stem-Loop Driven Prion Protein mRNA Translation in H4 Neuroglioblastoma Cells. [Related pubchem assays: 1829 (Project Summary), 1814 (Primary HTS)]; assay type: functional; settings: Homo sapiens
[2] = acridine orange displacement from DNA – biochemical, fluorescence polarization, cherry-pick, artefact control for RAD54 inhibitor project, dose response (AID 651673); assay type: functional
[3] = target: T1, DNA repair and recombination protein RAD54-like (Homo sapiens, UniProt Q92698); assay: RAD54 Holliday junction migration blockers – biochemical, fluorescence, cherry-picked samples, dose series, confirmation (AID 651657); assay type: functional
T1 sequence (Q92698 whole entry): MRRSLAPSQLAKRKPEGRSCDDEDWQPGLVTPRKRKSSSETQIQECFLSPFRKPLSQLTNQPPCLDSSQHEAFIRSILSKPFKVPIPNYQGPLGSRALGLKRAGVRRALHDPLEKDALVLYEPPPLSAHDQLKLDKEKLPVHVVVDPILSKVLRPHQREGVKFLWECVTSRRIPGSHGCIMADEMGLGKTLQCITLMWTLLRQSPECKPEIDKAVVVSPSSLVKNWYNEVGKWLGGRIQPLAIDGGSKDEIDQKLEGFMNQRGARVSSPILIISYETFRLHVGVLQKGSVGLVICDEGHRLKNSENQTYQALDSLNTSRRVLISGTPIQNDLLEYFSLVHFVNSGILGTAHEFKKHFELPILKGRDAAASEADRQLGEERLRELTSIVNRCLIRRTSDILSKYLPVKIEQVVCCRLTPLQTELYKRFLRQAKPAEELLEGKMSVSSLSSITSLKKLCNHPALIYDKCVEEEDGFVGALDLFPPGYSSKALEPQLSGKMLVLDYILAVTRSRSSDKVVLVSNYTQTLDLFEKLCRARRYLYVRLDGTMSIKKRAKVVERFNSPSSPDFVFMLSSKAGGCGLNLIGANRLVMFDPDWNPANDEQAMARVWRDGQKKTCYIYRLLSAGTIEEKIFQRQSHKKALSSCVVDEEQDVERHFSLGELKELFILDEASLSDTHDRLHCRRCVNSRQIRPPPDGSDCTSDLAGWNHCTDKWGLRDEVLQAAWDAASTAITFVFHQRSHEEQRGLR

[4] = target: SWI/SNF-related matrix-associated actin-dependent regulator of chromatin subfamily A member 2 (Homo sapiens, UniProt P51531); assay: Luminescence-based cell-based high throughput dose response assay to identify activators of the function of SWI/SNF related, matrix associated, actin dependent regulator of chromatin, subfamily a, member 2 (SMARCA2, BRM).; assay type: functional
[5] = Counterscreen for activators of the function of SWI/SNF related, matrix associated, actin dependent regulator of chromatin, subfamily a, member 2 (SMARCA2, BRM): Luminescence-based cell-based high throughput dose response assay to identify non-selective compounds using the VP16 reporter assay.; assay type: functional
[6] = target: T2, DNA repair protein RAD52 homolog (Homo sapiens, UniProt P43351); assay type: functional, biochemical
T2 sequence (P43351 whole entry): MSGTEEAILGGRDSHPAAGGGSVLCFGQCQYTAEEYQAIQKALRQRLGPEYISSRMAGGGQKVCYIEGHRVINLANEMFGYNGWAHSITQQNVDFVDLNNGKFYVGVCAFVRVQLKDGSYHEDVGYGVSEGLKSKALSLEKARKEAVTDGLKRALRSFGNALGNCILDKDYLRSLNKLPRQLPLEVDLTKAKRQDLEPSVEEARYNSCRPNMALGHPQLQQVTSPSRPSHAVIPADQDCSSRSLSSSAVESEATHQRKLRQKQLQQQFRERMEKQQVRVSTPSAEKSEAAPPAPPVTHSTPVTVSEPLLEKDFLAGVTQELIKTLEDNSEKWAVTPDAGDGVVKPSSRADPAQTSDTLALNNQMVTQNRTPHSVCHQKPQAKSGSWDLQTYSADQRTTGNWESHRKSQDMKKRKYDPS

Beta-galactosidase = Beta-galactosidase (Escherichia coli, UniProt Q8VNN2); assay: Dose response counterscreen for EBI2 assay utilizing the enzyme, b-galactosidase.; assay type: functional
cells [7] = assay type: functional, cell-based
cells [8] = assay type: functional, cell-based; remark: listed apart in the source
[9] = target: Luciferin 4-monooxygenase (Photinus pyralis, UniProt P08659); assay: inhibition of purified Photinus pyralis luciferase – biochemical, luminescence, dose response (AID 1891)
[10] = Luminescence Cell-Based Dose Confirmation HTS to Identify Inhibitors of Platelet Dense Granule Release. [Related pubchem assays: 1663 (Primary HTS), 1678 (Summary of Project)]; assay type: functional
[11] = Trypanosoma cruzi growth suppression in host cells – NIH3T3 host cells, beta-gal luminescence, confirmation (AID 2044); assay type: functional, cell-based;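 note: intracellular parasites grown in NIH/3T3 mouse fibroblasts as host cells; luminescent beta-galactosidase reporter signal from transgenic T. cruzi replicating inside host cells; inhibitors lower the luminescence signal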
[12] = NIH3T3 cell viability loss – ATP luminescence, mouse fibroblasts, counter-screen, dose response (AID 2010); assay type: functional, cell-based;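 note: cells exposed to compound for about 90 hours before reading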
[13] = target: T3, Oxysterols receptor LXR-beta (Homo sapiens, UniProt P55055); assay type: functional, cell-based;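 note: agonist activity at LXR measured by a cell-based luminescence readout across a dose range, run as a counterscreen for daf-12 agonists; HEK293 cells with Gal4-LXR fusion and GAL4-driven luciferase reporter; potency for activation of Gal4-LXR reporter so compounds are agonists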
T3 sequence (P55055 whole entry): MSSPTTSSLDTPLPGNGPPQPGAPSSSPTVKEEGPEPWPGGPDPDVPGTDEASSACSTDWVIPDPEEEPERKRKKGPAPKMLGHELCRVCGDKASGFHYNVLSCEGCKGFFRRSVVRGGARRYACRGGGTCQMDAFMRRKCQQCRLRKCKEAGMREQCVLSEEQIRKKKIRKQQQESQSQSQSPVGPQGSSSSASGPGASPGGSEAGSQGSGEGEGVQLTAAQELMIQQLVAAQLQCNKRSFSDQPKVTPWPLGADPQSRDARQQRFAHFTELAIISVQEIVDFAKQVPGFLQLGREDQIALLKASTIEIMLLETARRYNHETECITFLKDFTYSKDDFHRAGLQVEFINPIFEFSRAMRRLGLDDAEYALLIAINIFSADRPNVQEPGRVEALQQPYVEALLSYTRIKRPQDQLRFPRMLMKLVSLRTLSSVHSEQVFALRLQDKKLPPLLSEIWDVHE

Sequence of Beta-galactosidase (Q8VNN2 whole entry): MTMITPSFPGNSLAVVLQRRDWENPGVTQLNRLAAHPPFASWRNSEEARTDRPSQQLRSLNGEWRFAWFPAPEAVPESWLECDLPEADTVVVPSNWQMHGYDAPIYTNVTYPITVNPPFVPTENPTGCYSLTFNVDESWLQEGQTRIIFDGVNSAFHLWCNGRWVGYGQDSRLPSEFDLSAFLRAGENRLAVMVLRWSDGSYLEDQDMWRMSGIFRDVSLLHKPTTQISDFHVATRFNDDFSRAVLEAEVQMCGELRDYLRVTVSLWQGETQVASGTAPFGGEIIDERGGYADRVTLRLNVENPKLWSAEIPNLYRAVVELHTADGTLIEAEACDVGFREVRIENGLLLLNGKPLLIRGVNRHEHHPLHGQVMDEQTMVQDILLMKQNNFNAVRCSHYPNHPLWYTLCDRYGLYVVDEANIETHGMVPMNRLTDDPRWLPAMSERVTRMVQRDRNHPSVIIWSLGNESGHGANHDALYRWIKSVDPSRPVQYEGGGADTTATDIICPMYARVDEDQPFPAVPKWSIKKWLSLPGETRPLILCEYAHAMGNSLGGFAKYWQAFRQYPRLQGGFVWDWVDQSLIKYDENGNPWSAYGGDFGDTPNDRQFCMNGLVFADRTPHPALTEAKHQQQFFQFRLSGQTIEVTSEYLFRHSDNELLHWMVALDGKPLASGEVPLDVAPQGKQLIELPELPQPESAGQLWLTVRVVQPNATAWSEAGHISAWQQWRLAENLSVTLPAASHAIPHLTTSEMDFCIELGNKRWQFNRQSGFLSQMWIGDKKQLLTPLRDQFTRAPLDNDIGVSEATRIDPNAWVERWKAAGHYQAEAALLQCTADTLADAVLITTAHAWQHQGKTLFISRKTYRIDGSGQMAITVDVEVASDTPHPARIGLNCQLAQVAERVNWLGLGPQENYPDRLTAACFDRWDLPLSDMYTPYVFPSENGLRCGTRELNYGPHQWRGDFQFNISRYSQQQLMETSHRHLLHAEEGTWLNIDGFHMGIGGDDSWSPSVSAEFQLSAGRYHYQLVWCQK
Sequence of Luciferin 4-monooxygenase (P08659 whole entry): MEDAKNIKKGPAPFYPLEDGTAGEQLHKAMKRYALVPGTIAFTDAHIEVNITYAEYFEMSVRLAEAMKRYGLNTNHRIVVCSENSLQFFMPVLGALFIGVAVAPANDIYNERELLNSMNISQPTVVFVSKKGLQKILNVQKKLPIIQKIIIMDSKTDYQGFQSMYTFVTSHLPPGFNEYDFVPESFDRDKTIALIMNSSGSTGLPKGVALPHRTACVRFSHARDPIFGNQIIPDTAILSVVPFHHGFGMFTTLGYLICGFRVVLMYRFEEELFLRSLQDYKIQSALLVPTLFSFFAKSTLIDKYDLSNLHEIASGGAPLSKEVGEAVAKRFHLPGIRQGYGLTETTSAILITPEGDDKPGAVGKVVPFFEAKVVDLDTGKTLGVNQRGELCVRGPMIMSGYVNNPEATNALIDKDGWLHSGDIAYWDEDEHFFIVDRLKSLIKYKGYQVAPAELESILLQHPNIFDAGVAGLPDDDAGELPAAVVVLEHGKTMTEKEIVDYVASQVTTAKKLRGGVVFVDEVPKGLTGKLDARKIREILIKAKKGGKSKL
Sequence of SWI/SNF-related matrix-associated actin-dependent regulator of chromatin subfamily A member 2 (P51531 whole entry): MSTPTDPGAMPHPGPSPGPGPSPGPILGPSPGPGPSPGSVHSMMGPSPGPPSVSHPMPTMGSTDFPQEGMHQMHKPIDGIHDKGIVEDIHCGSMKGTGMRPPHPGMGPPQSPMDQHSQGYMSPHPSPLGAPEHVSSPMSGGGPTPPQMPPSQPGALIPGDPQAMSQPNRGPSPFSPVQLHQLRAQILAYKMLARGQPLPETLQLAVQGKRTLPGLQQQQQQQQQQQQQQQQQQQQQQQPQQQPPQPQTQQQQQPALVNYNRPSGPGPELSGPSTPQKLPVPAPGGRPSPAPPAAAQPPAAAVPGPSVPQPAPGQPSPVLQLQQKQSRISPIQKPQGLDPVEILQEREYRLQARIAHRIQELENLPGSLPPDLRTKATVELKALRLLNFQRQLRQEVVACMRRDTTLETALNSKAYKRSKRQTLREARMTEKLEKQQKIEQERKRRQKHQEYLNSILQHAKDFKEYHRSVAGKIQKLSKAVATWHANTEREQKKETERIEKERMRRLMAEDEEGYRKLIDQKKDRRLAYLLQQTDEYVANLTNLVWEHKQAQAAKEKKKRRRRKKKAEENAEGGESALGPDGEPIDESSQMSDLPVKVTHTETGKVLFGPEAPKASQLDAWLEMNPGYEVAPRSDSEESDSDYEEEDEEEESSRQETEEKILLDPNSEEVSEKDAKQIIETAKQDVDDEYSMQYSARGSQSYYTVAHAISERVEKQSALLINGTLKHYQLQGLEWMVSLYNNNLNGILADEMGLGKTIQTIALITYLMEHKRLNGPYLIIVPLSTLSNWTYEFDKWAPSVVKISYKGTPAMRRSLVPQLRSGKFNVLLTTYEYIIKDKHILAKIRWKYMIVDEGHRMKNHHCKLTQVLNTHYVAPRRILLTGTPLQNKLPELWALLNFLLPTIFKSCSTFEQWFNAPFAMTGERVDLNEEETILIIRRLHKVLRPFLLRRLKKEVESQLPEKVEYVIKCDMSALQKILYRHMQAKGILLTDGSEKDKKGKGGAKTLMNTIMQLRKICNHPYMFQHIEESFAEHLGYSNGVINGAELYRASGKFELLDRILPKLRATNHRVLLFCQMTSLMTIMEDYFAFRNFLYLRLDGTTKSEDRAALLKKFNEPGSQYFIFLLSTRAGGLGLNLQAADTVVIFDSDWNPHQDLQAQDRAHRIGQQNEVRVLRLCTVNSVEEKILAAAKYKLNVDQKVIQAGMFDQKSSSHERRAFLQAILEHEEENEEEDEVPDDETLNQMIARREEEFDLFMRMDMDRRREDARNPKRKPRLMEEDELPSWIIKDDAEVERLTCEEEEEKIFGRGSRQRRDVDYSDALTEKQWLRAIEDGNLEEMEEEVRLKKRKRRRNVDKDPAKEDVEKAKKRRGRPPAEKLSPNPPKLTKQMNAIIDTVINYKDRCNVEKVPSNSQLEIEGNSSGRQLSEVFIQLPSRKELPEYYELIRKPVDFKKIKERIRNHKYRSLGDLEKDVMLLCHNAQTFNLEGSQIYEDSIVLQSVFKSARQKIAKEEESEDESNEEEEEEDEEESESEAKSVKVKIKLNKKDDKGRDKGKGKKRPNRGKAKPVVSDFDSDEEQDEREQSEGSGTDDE

With `CCN(CC)CCCNc1nc2ccccc2c2nc(-c3ccncc3)nn12` the EC50 [1] was 16.5 µM (active), the EC50 (H4) was > 120 µM (not active) and the AC50 [2] was 40.4 µM (active). The AC50 [3] was 6.19 µM (active), the EC50 [4] was 32.5 µM (inactive) and the EC50 [5] was > 91.2 µM (inactive). The AC50 [6] was 10.4 µM (active).

For `CN(Cc1ccc(F)cc1)C(=O)COc1ccc2ccccc2c1`, the IC50 (Beta-galactosidase) was > 80 µM (inactive).

In the case of `Oc1cc(C=NNc2ccccc2)nc(O)n1`, the IC50 (cells [7]) is reported as > 29.9 µM (inactive) and the EC50 (cells [8]) is reported as > 29.9 µM (inactive).

In the case of `Cc1cc(C)c2c(=O)n3c(nc2c1)C(CC(C)C)NC(=O)c1cc2ccccc2cc1-3` (stereo unspecified), the IC50 (Beta-galactosidase) is reported as > 80 µM (inactive).

For `CN1CCN(/C=N/c2sc3c(c2C#N)CCCCC3)CC1`, the EC50 [9] was > 112 µM (not active), the EC50 [10] was > 112 µM (not active) and the EC50 [11] was 1.01 µM (active). For the same compound, the EC50 [12] was > 60 µM (not active) and the EC50 [13] was > 67.5 µM (inactive).
